Tested on: HCV 1a genotype replicon
Assay: HCV replicon assay (qRT-PCR or luciferase), genotype 1a
Type: cell-based
Details: Hepatitis C virus, Table 12, numeric values, read-out: 1a EC50
Description: HCV replicon cell lines (kindly provided by R. Bartenschlager) isolated from colonies as described by Lohman et. al. (Lohman et al. (1999) Science 285: 110-113, expressly incorporated by reference in its entirety) and used for all experiments. The HCV replicon has the nucleic acid sequence set forth in EMBL Accession No.: AJ242651, the coding sequence of which is from nucleotides 1801 to 8406.
These cell lines were maintained at 37° C., 5% CO2, 100% relative humidity in DMEM (Cat#11965-084, Invitrogen), with 10% fetal calf serum (“FCS”, Invitrogen), 1% non-essential amino acids (Invitrogen), 1% of Glutamax (Invitrogen), 1% of 100× penicillin/streptomycin (Cat#15140-122, Invitrogen) and Geneticin (Cat#10131-027, Invitrogen) at 0.75 mg/ml or 0.5 mg/ml for 11-7 and Huh-luc/neo-ET cells, respectively.
EC50 values of single agent compounds and combinations were determined by HCV RNA detection using quantitative RT-PCR, according to the manufacturer's instructions, with a TAQMAN® One-Step RT-PCR Master Mix Reagents Kit (Cat#AB 4309169, Applied Biosystems) on an ABI Model 7500 thermocycler. The TaqMan primers used for detecting and quantifying HCV RNA were obtained from Integrated DNA Technologies. HCV RNA was normalized to GAPDH RNA levels in drug-treated cells, which is detected and quantified using the Human GAPDH Endogenous Control Mix (Applied Biosystems, AB 4310884E). Total cellular RNA is purified from 96-well plates using the RNAqueous 96 kit (Ambion, Cat# AM1812). Chemical agent cytotoxicity is evaluated using an MTS assay according to the manufacturer's directions (Promega).
Since clinical drug resistance often develops in viral infections following single agent therapies, there is a need to assess the additive, antagonistic, or synergistic properties of combination therapies. We used the HCV replicon system to assess the potential use of the compound of the present invention or in combination therapies with Interferon alpha, cyclosporine analogs and inhibitors targeting other HCV proteins. The acute effects of a single or combinations of drugs are studied in the “Huh-luc/neo-ET” replicon with each chemical agent titrated in an X or Y direction in a 6 point two-fold dilution curve centered around the EC50 of each drug. Briefly, replicon cells are seeded at 7,000 cells per well in 90 ul DMEM (without phenol red, Invitrogen Cat.#31053-036) per well with 10% FCS, 1% non-essential amino acids, 1% of Glutamax and 1% of 100× penicillin/streptomycin and incubated overnight at 37° C., 5% CO2, 100% relative humidity. 16-20 h after seeding cells, test compounds previously solubilized and titrated in dimethyl sulfoxide (“DMSO”) from each X plate and Y plate are diluted 1:100 in DMEM (without phenol red, Invitrogen Cat.#31053-036) with 10% FCS, 1% non-essential amino acids, 1% of Glutamax and 1% of 100× penicillin/streptomycin and added directly to the 96-well plate containing cells and growth medium at a 1:10 dilution for a final dilution of compound and DMSO of 1:1000 ([…] final concentration). Drug treated cells are incubated at 37° C., 5% CO2, 100% relative humidity for 72 hours before performing a luciferase assay using 100 ul per well BriteLite Plus (Perkin Elmer) according to the manufacturer's instructions. Data analysis utilizes the method published by Prichard and Shipman (Antiviral Research, 1990. 14:181-205). Using this method, the combination data are analyzed for antagonistic, additive, or synergistic combination effects across the entire combination surface created by the diluted compounds in combination.
The compounds of the present invention can be effective against the HCV 1b genotype. It should also be understood that the compounds of the present invention can inhibit multiple genotypes of HCV. In one embodiment compound of the present invention are active against the 1a, 1b, 2a, 2b, 3a, 4a, and 5a genotypes. […] EC50 ranges against HCV 1b and 1a are as follows: A>10 nM; B1-10 nM; C<1 nM.

Point of comparison: COC(=O)N[C@H](C(=O)N1CC2(CC2)C[C@H]1c1ncc(-c2ccc(C#Cc3ccc4nc([C@@H]5CC6(CC6)CN5C(=O)[C@H](NC(=O)OC)c5ccc(Cl)cc5)[nH]c4c3)cc2)[nH]1)C(C)C [Example 650], EC50 0.079 nM. Against it:
- COC(=O)N[C@H](C(=O)N1CC2(CC2)C[C@H]1c1nc2ccc(C#Cc3ccc(-c4cnc([C@@H]5CCCN5C(=O)[C@H](NC(=O)OC)c5cccc(OC)c5)[nH]4)cc3)cc2[nH]1)C(C)C [Example 597] — 2.9-fold higher, 0.227 nM

Same assay, conditions: Hepatitis C virus, Table 12, range class, read-out: 1a EC50 Range

First: COC(=O)N[C@@H](C(=O)N1CC2(CC2)C[C@H]1c1ncc(-c2ccc(C#Cc3ccc4nc([C@@H]5CC6(CC6)CN5C(=O)[C@H](NC(=O)OC)c5cccc(F)c5)[nH]c4c3)cc2)[nH]1)c1cccc(F)c1 [Example 677]
Second: COC(=O)N[C@@H](C(=O)N1CC2(CC2)C[C@H]1c1ncc(-c2ccc(C#Cc3ccc4nc([C@@H]5CC6(CC6)CN5C(=O)[C@H](NC(=O)OC)c5ccc(Cl)cc5)[nH]c4c3)cc2)[nH]1)c1ccc(Cl)cc1 [Example 611]
The EC50 of the first is lower: 1 to 10 nM for the first, greater than 10 nM for the second. The first is the more potent here.

Going from CC(C)[C@H](NC(=O)OC1CCC1)C(=O)N1CC2(CC2)C[C@H]1c1ncc(-c2ccc(C#Cc3ccc4nc([C@@H]5CC6(CC6)CN5C(=O)[C@@H](NC(=O)OC5CCC5)C(C)C)[nH]c4c3)cc2)[nH]1 [Example 576] to COC(=O)N[C@H](C(=O)N1CC2(CC2)C[C@H]1c1ncc(-c2ccc(C#Cc3ccc4nc([C@@H]5CC6(CC6)CN5C(=O)[C@@H](NC(=O)OC)C5CCCC5)[nH]c4c3)cc2)[nH]1)C(C)C [Example 679], the EC50 falls from greater than 10 nM to less than 1 nM.

First: COC(=O)N[C@H](C(=O)N1CC2(CC2)C[C@H]1c1nc2ccc(C#Cc3ccc(-c4cnc([C@@H]5CCCN5C(=O)OC(C)(C)C)[nH]4)cc3)cc2[nH]1)C(C)C [Compound 666]
Second: COC(=O)N[C@H](C(=O)N1CC2(CC2)C[C@H]1c1nc2ccc(C#Cc3ccc(-c4cnc([C@@H]5CCCN5C(=O)[C@@H](NC(=O)OC)[C@@H](C)OC)[nH]4)cc3)cc2[nH]1)C(C)C [Example 598]
The EC50 of the first is higher: greater than 10 nM for the first, less than 1 nM for the second.

COC(=O)N[C@H](C(=O)N1CC2(CC2)C[C@H]1c1nc2ccc(C#Cc3ccc(-c4cnc([C@@H]5CCCN5C(=O)[C@H](NC(=O)OC)c5ccsc5)[nH]4)cc3)cc2[nH]1)C(C)C [Example 596] and COC(=O)N[C@H](C(=O)N1CC2(CC2)C[C@H]1c1nc2ccc(C#Cc3ccc(-c4cnc([C@@H]5CCCN5C(=O)[C@H](NC(=O)OC)c5ccco5)[nH]4)cc3)cc2[nH]1)C(C)C [Example 682] cannot be ordered by EC50: less than 1 nM for the first, less than 1 nM for the second.

COC(=O)N[C@H](C(=O)N1CC2(CC2)C[C@H]1c1nc(-c2ccc(C#Cc3ccc4[nH]c([C@@H]5CC6(CC6)CN5C(=O)[C@@H](NC(=O)OC)C(C)C)nc4c3)cc2)c(C2CC2)[nH]1)C(C)C [Example 591] and COC(=O)N[C@H](C(=O)N1CC2(CC2)C[C@H]1c1nc(-c2ccc(C#Cc3ccc4[nH]c([C@@H]5CC6(CC6)CN5C(=O)[C@@H](NC(=O)OC)C(C)C)nc4c3)cc2)c(F)[nH]1)C(C)C [Example 660] cannot be ordered by EC50: less than 1 nM for the first, less than 1 nM for the second.

First: COC(=O)N[C@@H](CNC(N)=O)C(=O)N1CCC[C@H]1c1ncc(-c2ccc(C#Cc3ccc4nc([C@@H]5CC6(CC6)CN5C(=O)[C@@H](NC(=O)OC)C(C)C)[nH]c4c3)cc2)[nH]1 [Example 550]
Second: CC[C@H](C)[C@H](NC(=O)OC)C(=O)N1CCC[C@H]1c1ncc(-c2ccc(C#Cc3ccc4nc([C@@H]5CC6(CC6)CN5C(=O)[C@@H](NC(=O)OC)C(C)C)[nH]c4c3)cc2)[nH]1 [Example 673]
The EC50 of the first is higher: 1 to 10 nM for the first, less than 1 nM for the second.

First: COC(=O)N[C@@H](CCCCNC(N)=O)C(=O)N1CCC[C@H]1c1nc(-c2ccc(C#Cc3ccc4[nH]c([C@@H]5CC6(CC6)CN5C(=O)[C@@H](NC(=O)OC)C(C)C)nc4c3)cc2)c[nH]1 [Example 620]
Second: COC(=O)N[C@H](C(=O)N1CCC[C@H]1c1nc(-c2ccc(C#Cc3ccc4[nH]c([C@@H]5C[C@]6(CCCO6)CN5C(=O)[C@@H](NC(=O)OC)C(C)C)nc4c3)cc2)c[nH]1)C(C)C [Example 557]
The EC50 of the first is lower: less than 1 nM for the first, 1 to 10 nM for the second. The first is the more potent here.

COC(=O)N[C@H](C(=O)N1CC2(CC2)C[C@H]1c1nc2ccc(C#Cc3ccc(-c4cnc([C@@H]5CCCN5C(=O)[C@H](NC(=O)OC)c5cc(F)cc(F)c5)[nH]4)cc3)cc2[nH]1)C(C)C (stereo in doubt) [Example 678] and COC(=O)N[C@H](C(=O)N1CC2(CC2)C[C@H]1c1nc2ccc(C#Cc3ccc(-c4cnc([C@@H]5CCCN5C(=O)[C@H](NC(=O)OC)c5ccc(F)cc5)[nH]4)cc3)cc2[nH]1)C(C)C [Example 664] cannot be ordered by EC50: less than 1 nM for the first, less than 1 nM for the second.

COC(=O)N[C@H](C(=O)N1C[C@@H](CF)C[C@H]1c1ncc(-c2ccc(C#Cc3ccc4nc([C@@H]5C[C@@]6(CCCO6)CN5C(=O)[C@@H](NC(=O)OC)C(C)C)[nH]c4c3)cc2)[nH]1)C(C)C [Example 566] and CC[C@H](C)[C@H](NC(=O)OC)C(=O)N1CC2(CC2)C[C@H]1c1ncc(-c2ccc(C#Cc3ccc4nc([C@@H]5CC6(CC6)CN5C(=O)[C@@H](NC(=O)OC)C(C)C)[nH]c4c3)cc2)[nH]1 [Example 674] cannot be ordered by EC50: less than 1 nM for the first, less than 1 nM for the second.

First: COC(=O)N[C@H](C(=O)N1CC2(CC2)C[C@H]1c1ncc(-c2ccc(C#Cc3ccc4nc([C@@H]5CC6(CC6)CN5C(=O)[C@@H](NC(=O)OC)[C@@H](C)c5ccccc5)[nH]c4c3)cc2)[nH]1)C(C)C [Example 668]
Second: COC(=O)N[C@H](C(=O)N1CC2(CC2)C[C@H]1c1ncc(-c2ccc(C#Cc3ccc4nc([C@@H]5CC6(CC6)CN5C(=O)[C@H](NC(=O)OC)c5ccc(OC)cc5)[nH]c4c3)cc2)[nH]1)C(C)C [Example 585]
The EC50 of the first is lower: less than 1 nM for the first, 1 to 10 nM for the second. The first is the more potent here.

COC(=O)N[C@H](C(=O)N1CC2(CC2)C[C@H]1c1nc(-c2cccnc2)c(-c2ccc(C#Cc3ccc4nc([C@@H]5CC6(CC6)CN5C(=O)[C@@H](NC(=O)OC)C(C)C)[nH]c4c3)cc2)[nH]1)C(C)C [Example 662] and COC(=O)N[C@H](C(=O)N1CC2(CC2)C[C@H]1c1nc(-c2ccc(C#Cc3ccc4[nH]c([C@@H]5CC6(CC6)CN5C(=O)[C@@H](NC(=O)OC)C(C)C)nc4c3)cc2)c(Cl)[nH]1)C(C)C [Example 588] cannot be ordered by EC50: less than 1 nM for the first, less than 1 nM for the second.

COC(=O)N[C@H](C(=O)N1CC2(CC2)C[C@H]1c1nc2ccc(C#Cc3ccc(-c4cnc([C@@H]5C[C@@H](C)CN5C(=O)[C@@H](NC(=O)OC)C5CCOCC5)[nH]4)cc3)cc2[nH]1)C(C)C [Example 603] and COC(=O)N[C@H](C(=O)N1CC2(CC2)C[C@H]1c1ncc(-c2ccc(C#Cc3ccc4nc([C@@H]5CC6(CC6)CN5C(=O)[C@@H](NC(=O)OC)C5CC5)[nH]c4c3)cc2)[nH]1)C(C)C [Example 602] cannot be ordered by EC50: less than 1 nM for the first, less than 1 nM for the second.

Compared with COC(=O)N[C@H](C(=O)N1CC2(CC2)C[C@H]1c1ncc(-c2ccc(C#Cc3ccc4nc([C@@H]5CC6(CC6)CN5C(=O)[C@H](NC(=O)OC)C5CCCCC5)[nH]c4c3)cc2)[nH]1)C(C)C [Example 667], COC(=O)N[C@H](C(=O)N1CC2(CC2)C[C@H]1c1nc2ccc(C#Cc3ccc(-c4cnc([C@@H]5C[C@H]6C[C@H]6N5C(=O)[C@H](NC(=O)OC)c5ccccc5)[nH]4)cc3)cc2[nH]1)C(C)C [Example 659] is lower in EC50: 1 to 10 nM for the first, less than 1 nM for the second. The second is the more potent here.

First: COC(=O)N[C@@H](C(=O)N1CC2(CC2)C[C@H]1c1ncc(-c2ccc(C#Cc3ccc4nc([C@@H]5CC6(CC6)CN5C(=O)[C@H](NC(=O)OC)c5cccs5)[nH]c4c3)cc2)[nH]1)c1cccs1 [Example 680]
Second: COC(=O)N[C@H](C(=O)N1C[C@@H]2C[C@@H]2[C@H]1c1nc2cc(C#Cc3ccc(-c4c[nH]c([C@@H]5CCCN5C(=O)[C@@H](NC(=O)OC)C(C)C)n4)cc3)ccc2[nH]1)C(C)C [Example 690]
The EC50 of the first is higher: greater than 10 nM for the first, 1 to 10 nM for the second. The second is the more potent here.

— patent publication US9765087B2, “Benzimidazole derivatives” (ENANTA PHARMACEUTICALS, INC., priority 2009, dated 2017)
